Laboratory results published in ChEMBL document CHEMBL6177963, “Development of acylhydrazone linked thiazoles as non-covalent dual inhibitors of SARS-CoV-2 proteases” (Eur J Med Chem, 2025).

Legend:
[1] = Inhibition of recombinant SARS-CoV-2 MPro overexpressed in Escherichia coli assessed as inhibition constant using VNSTLQISGLRLys(Dabcyl) as substrate by FRET assay; parameters: species or system Severe acute respiratory syndrome coronavirus 2
[2] = test system: Severe acute respiratory syndrome coronavirus 2; assay: Inhibition of recombinant SARS-CoV-2 MPro overexpressed in Escherichia coli assessed as inhibition constant using VNSTLQISGLRLys(Dabcyl) as substrate at 10 uM by FRET assay relative to control

SMILES | Ki [1] | inhibition [2] [%] | Ki ([1]; read-out: Ki) [µM]
Cc1ccc(-c2csc(NNC(=O)c3ccc(Cl)cc3)n2)cc1 | Not_active | < 50 | 
CCOC(=O)c1sc(NNC(=O)c2ccc([N+](=O)[O-])cc2)nc1C |  |  | 0.73
CCOC(=O)c1sc(NNC(=O)c2ccco2)nc1C | Not_active | < 50 | 
CCOC(=O)c1sc(NNC(=O)c2ccc(F)cc2)nc1C | Not_active | < 50 | 
O=C(NNc1nc(-c2ccc(Br)cc2)cs1)c1ccc(Cl)cc1 | Not_active | < 50 | 
Cc1ccc(-c2csc(NNC(=O)c3ccc(F)cc3)n2)cc1 |  |  | 11.1
O=C(NNc1nc(-c2ccc(Cl)cc2)cs1)c1ccc(Br)cc1 | Not_active | < 50 | 
O=C(NNc1nc(-c2ccc(Br)cc2)cs1)c1ccc(Br)cc1 | Not_active | < 50 | 
O=C(NNc1nc(-c2ccc(Br)cc2)cs1)c1ccc([N+](=O)[O-])cc1 | Not_active | < 50 | 
O=C(NNc1ncc(-c2ccc(Cl)cc2)s1)c1cccc(Cl)c1 | Not_active | < 50 | 
O=c1c2ccccc2[se]n1-c1ccccc1 [EBSELEN] |  |  | 0.486
CCOC(=O)c1sc(NNC(=O)c2ccccc2C)nc1C | Not_active | < 50 | 
O=C(NNc1nc(-c2ccc(Cl)cc2)cs1)c1ccc(F)cc1 |  |  | 10.6
Cc1ccc(-c2csc(NNC(=O)c3ccc(Br)cc3)n2)cc1 | Not_active | < 50 | 
CCOC(=O)c1sc(NNC(=O)c2ccc(Br)cc2)nc1C |  |  | 4.58
O=C(NNc1nc(-c2ccc(Br)cc2)cs1)c1ccc(F)cc1 |  |  | 4.28
CCOC(=O)c1sc(NNC(=O)c2ccc3ccccc3c2)nc1C | Not_active | < 50 | 
COC(=O)c1sc(NNC(=O)c2ccc([N+](=O)[O-])cc2)nc1C | Not_active | < 50 | 

SMILES | Ki [1] | inhibition [2] [%] | Ki ([1]; read-out: Ki) [µM]
CCOC(=O)c1sc(NNC(=O)c2cccc(Br)c2)nc1C | Not_active | < 50 | 
O=C(NNc1ncc(-c2ccc(Cl)cc2)s1)c1ccc2ccccc2c1 | Not_active | < 50 | 
CCOC(=O)c1sc(NNC(=O)c2ccccc2OC)nc1C | Not_active | < 50 | 
CCOC(=O)c1sc(NNC(=O)c2cccs2)nc1C |  |  | 2.4
CCOC(=O)c1sc(NNC(=O)c2ccccc2)nc1C | Not_active | < 50 | 
CCOC(=O)c1sc(N/N=C/c2cc3ccccc3nc2Cl)nc1C | Not_active |  | 
O=C(NNc1nc(-c2ccc(Br)cc2)cs1)c1ccccc1 | Not_active | < 50 | 
Clc1nc2ccccc2cc1/C=N/Nc1nc(-c2ccccc2)cs1 | Not_active | < 50 | 
CCOC(=O)c1sc(NNC(=O)c2ccc(C)cc2)nc1C | Not_active | < 50 | 
O=C(NNc1nc(-c2ccc(Cl)cc2)cs1)c1ccc(Cl)cc1 |  |  | 13.4
Cc1ccc(C(=O)NNc2nc(-c3ccc(Cl)cc3)cs2)cc1 |  |  | 9.37
Cc1ccc(C(=O)NNc2nc(-c3ccc(Br)cc3)cs2)cc1 | Not_active | < 50 | 
CCOC(=O)c1sc(NNC(=O)c2cccc(Cl)c2)nc1C | Not_active | < 50 | 
Cc1ccc(C(=O)NNc2nc(-c3ccc(C)cc3)cs2)cc1 | Not_active | < 50 | 
Oc1ccc(/C=N/Nc2nc(-c3ccc(Cl)cc3)cs2)cc1 |  |  | 18.8
CCOC(=O)c1sc(NNC(=O)c2ccc(Cl)cc2)nc1C |  |  | 14.9
Cc1ccc(-c2csc(NNC(=O)c3ccc([N+](=O)[O-])cc3)n2)cc1 |  |  | 44.7
CCOC(=O)c1sc(NNC(=O)/C=C/c2ccccc2)nc1C |  |  | 1.1
